Earlier results on 1 molecule are cited in US20170368079A1, “ANTI-INFLAMMATORY AND ANTIDIABETIC AGENTS” (priority 2016, published 2017).

Like-named read-outs stand apart in the source and are kept apart here.

One data set concerns platelet aggregation. Particulars: unlike aspirin.
The conditions of data set [1]: compared with placebo, in contrast to aspirin.
The subject of data set [2] is glucocorticoid metabolism. Particulars: mice; pattern differs between liver and subcutaneous adipose tissue.
For the next data set, the system named is prostaglandin synthesis. Conditions: in vivo; compared with aspirin and indomethacin.
In data set [3] the test system is patients with type 2 diabetes.
Data set [4] relates to glucocorticoid metabolism. Conditions: humans; pattern differs between liver and subcutaneous adipose tissue.

On to `O=C(Oc1ccccc1C(=O)O)c1ccccc1O` [salsalate, 2-(2-hydroxybenzoyl)oxybenzoic acid], for which the “inhibition of platelet aggregation” value in the data set on platelet aggregation is “does not inhibit platelet aggregation”. For the same molecule, the “fecal gastrointestinal blood loss” value in data set [1] is given as “no greater fecal gastrointestinal blood loss than placebo”. Besides, in data set [2], the glucocorticoid metabolism result is reported as “alters glucocorticoid metabolism”. Besides, in the data set on prostaglandin synthesis, the anti-inflammatory activity entry is “equivalent to aspirin and indomethacin”. Besides, in data set [3], the C-reactive protein result was “lowers”, the HbA1c levels result is “lowers”, the adiponectin concentrations entry is “increase” and the blood glucose entry is “lowers”. Besides, in data set [3], the circulating insulin entry is “increase”, the free fatty acid result is “lowers”, the glucose utilization entry is listed as “improve” and the triglycerides entry was “lowers”. For the same molecule, in data set [4], the glucocorticoid metabolism entry is “alters glucocorticoid metabolism”.
